According to patent publication US20250235496A1, “USE OF BELLIDIFOLIN (BEL) AND/OR BEL-CONTAINING EXTRACT IN PREPARATION OF ANTIDEPRESSANT PRODUCT” (priority 2024, published 2025):
Where a name gives a salt, the structure may show the parent alone.

What was measured:
CREB = CREB / p-CREB protein expression in hippocampus (immunoblot); format: in vivo, mice; settings: 21 d
Text: (§1) There was no significant difference in the expression of p-CREB protein among the groups.

5-HT2A = 5-HT2A protein expression in hippocampus (immunoblot); format: in vivo, mice; settings: 21 d, vs model group
Text: as §1

[1] = Mass spectrometry imaging of mouse brain; format: in vivo, mice; settings: mass spectrometry imaging, 21 d
mice = test: Acute toxicity study of BEL in mice; format: in vivo
hippocampal neurons = test: Golgi staining of brain tissue: neuron dendrite length and dendritic spine density; format: in vivo, mice; settings: 21 d; for Neuron dendrite length, Maximum / Neuron dendrite length, Mean / Neuron dendrite length, Minimum: mouse hippocampus
Text: (§2) Compared with the normal group, the hippocampus structure of the model group mice was abnormal, the cells were wrinkled and then irregularly arranged. After administration, the hippocampus structure returned to normal and the cells were arranged regularly. […] [0172](3) After 21 d of drug administration, brain tissues of mice in each treatment group were collected for Golgi staining.
• (4) After 21 d of drug administration, the dendritic spine density of neurons in the hippocampus of mice was counted. […] The effect intensity was as follows: 10 mg/kg BEL treatment group >20 mg/kg BEL treatment group BEL 40 mg/kg BEL treatment group.

HT22 cells = test: CORT-induced HT22 cell viability, BEL; format: cell-based; settings: Mus musculus, HT-22, 250 μM CORT, 24 h, model = 100.00
5-HT = test: Serum 5-HT level, BEL study; format: in vivo; settings: CORT-induced mice
Experimental: (§3) Behavioral experiments were conducted once a week, and the serum 5-HT and CORT levels of mice were recorded.

[2] = tested on: CORT-induced Kunming mouse model; test: In vivo antidepressant study of BEL: body weight, diet, water intake; set-up: species or system Kunming (KM) mice; settings: 21 d, CORT-induced mice
Experimental: After one week of adaptive feeding of experimental mice, 10 mice were randomly selected from 150 mice as a normal group, and the mice in the normal group were not treated in any way. […] The dosing volume was changed once a week according to the weight of the mice, and the mice were subcutaneously administered in the groin of the hind limb between 9:00 and 11:00 am every day. During the modeling, the weight, diet, and water intake of the mice were recorded, and the relevant data were counted once a week until the modeling was completed. During the modeling, the mice were subjected to behavioral analysis. 4 behavioral test designs were designed: FST, TST, SPT, and NSFT. […] There were 5 mice/cage in the normal group and 5 mice/cage in the model group. […] Behavioral experiments were conducted once a week, and the serum 5-HT and CORT levels of mice were recorded. The results were shown in Tables 3 to 5 and FIG. 12A to FIG. 14B.

[3] = tested on: CORT-induced Kunming mouse model; test: In vivo antidepressant study of BEL: behavioral tests (FST, TST, SPT, NSFT); set-up: species or system Kunming (KM) mice; settings: CORT-induced mice
CORT = test: Serum CORT level, BEL study; format: in vivo; settings: CORT-induced mice
Experimental: as §3

[4] = tested on: neurons in the hippocampus of mice; test: H & E staining and immunofluorescence histochemistry of hippocampus; format: in vivo; settings: 21 d of administration, CORT-induced mice
Text: [0170](2) After 21 d of drug administration, the hippocampus of mice in each treatment group was stained with H & E, and the proliferation of neurons in the hippocampus of mice was detected by immunofluorescence histochemistry.
as §2

Arg1 = Arg1 protein expression in hippocampus (immunoblot); format: in vivo, mice; settings: 10 mg/kg, 21 d, vs model group
Text: as §1

5-HT1A = 5-HT1A protein expression in hippocampus (immunoblot); format: in vivo, mice; settings: 10 and 20 mg/kg, 21 d, vs model group
Text: as §1

[5] = serum, 214 mg/kg gavage, 3 times within 24 h

COc1cc(O)c2c(=O)c3c(O)ccc(O)c3oc2c1 [BEL, bellidifolin]
CREB protein level in hippocampus (CREB; 10 mg/kg, reduced level in model group): could significantly reverse this phenomenon
Phosphorylation level of CREB in hippocampus (CREB; 40 mg/kg, vs model group): significantly decreased
Expression of 5-HT2A protein in hippocampus (5-HT2A): had no effect on the expression of 5-HT2A
Distribution in brain [1]: mainly distributed in the hypothalamus, amygdala, hippocampus, and cortex of mice
Observation during 14-d period (mice; 214 mg/kg gavage 3 times within 24 h, subsequent 14-d observation): did not show any abnormalities
Toxic side effects (weight, brain, liver, kidneys) (mice; 214 mg/kg gavage, 3 times within 24 h): no toxic side effects on mice
Weight (mice; 214 mg/kg gavage, 3 times within 24 h, 14 d observation): 39.18 ± 3.94 g
Observation after treatment (mice; 214 mg/kg gavage, 20 min after the second treatment): slight tremors, which disappeared after 2 min
ALT (mice; [5]): 26.85 ± 6.22 U/L
AST (mice; [5]): 48.73 ± 4.15 U/L
CRE (mice; [5]): 23.20 ± 5.69 µmol/L
Neuron dendrite length, Maximum (hippocampal neurons; 10 mg/kg/d gavage): 1853.00 μm
Neuron dendrite length, Mean (hippocampal neurons; 10 mg/kg/d gavage): 75.66 ± 60.55 μm
Neuron dendrite length, Minimum (hippocampal neurons; 10 mg/kg/d gavage): 5.86 μm
Neuron dendrite length, Maximum (hippocampal neurons; 20 mg/kg/d gavage): 2297.92 μm
Neuron dendrite length, Mean (hippocampal neurons; 20 mg/kg/d gavage): 140.64 ± 73.11 μm
Neuron dendrite length, Minimum (hippocampal neurons; 20 mg/kg/d gavage): 6.32 μm
Neuron dendrite length, Maximum (hippocampal neurons; 40 mg/kg/d gavage): 194.06 μm
Neuron dendrite length, Mean (hippocampal neurons; 40 mg/kg/d gavage): 51.73 ± 33.73 μm
Neuron dendrite length, Minimum (hippocampal neurons; 40 mg/kg/d gavage): 6.04 μm
Dendritic spine density of hippocampal neurons (hippocampal neurons; 10, 20 and 40 mg/kg, vs model group): could significantly increase the dendritic spine density
Number and length of neurons in the hippocampus (Golgi staining) (hippocampal neurons; 10 and 20 mg/kg): increased the number of neurons and the length of neurons
viability at 0.0625 µM (HT22 cells): 103 ± 5.03%
viability at 0.125 µM (HT22 cells): 107 ± 2.64%
viability at 0.25 µM (HT22 cells): 115 ± 3.93%
viability at 0.5 µM (HT22 cells): 120 ± 3.97%
viability at 1 µM (HT22 cells): 139 ± 5.34%
Serum 5-HT (5-HT; 10 mg/kg/d gavage): 134.29 ± 12.34 ng/mL
Serum 5-HT (5-HT; 20 mg/kg/d gavage): 216.11 ± 3.34 ng/mL
Serum 5-HT (5-HT; 40 mg/kg/d gavage): 133.42 ± 30.76 ng/mL
Body weight ([2]; 10 mg/kg/d gavage): 37.19 ± 3.35 g
Diet ([2]; 10 mg/kg/d gavage): 4.02 ± 0.03 g/day
Water intake ([2]; 10 mg/kg/d gavage): 4.72 ± 0.42 g/day
Body weight ([2]; 20 mg/kg/d gavage): 37.33 ± 3.30 g
Diet ([2]; 20 mg/kg/d gavage): 4.48 ± 0.45 g/day
Water intake ([2]; 20 mg/kg/d gavage): 4.87 ± 0.99 g/day
Body weight ([2]; 40 mg/kg/d gavage): 36.31 ± 3.72 g
Diet ([2]; 40 mg/kg/d gavage): 5.14 ± 1.00 g/day
Water intake ([2]; 40 mg/kg/d gavage): 6.82 ± 0.45 g/day
FST immobility time ([3]; 10 mg/kg/d gavage): 145.00 ± 36.40 s
NSFT start time of eating ([3]; 10 mg/kg/d gavage): 42.75 ± 31.56 s
SPT sugar water preference ([3]; 10 mg/kg/d gavage): 13.72 ± 0.30 %
TST immobility time ([3]; 10 mg/kg/d gavage): 27.50 ± 16.05 s
FST immobility time ([3]; 20 mg/kg/d gavage): 127.14 ± 36.38 s
NSFT start time of eating ([3]; 20 mg/kg/d gavage): 57.14 ± 35.77 s
SPT sugar water preference ([3]; 20 mg/kg/d gavage): 12.41 ± 3.32%
TST immobility time ([3]; 20 mg/kg/d gavage): 47.22 ± 35.19 s
FST immobility time ([3]; 40 mg/kg/d gavage): 193.33 ± 25.98 s
NSFT start time of eating ([3]; 40 mg/kg/d gavage): 38.78 ± 22.73 s
SPT sugar water preference ([3]; 40 mg/kg/d gavage): 8.75 ± 0.18%
TST immobility time ([3]; 40 mg/kg/d gavage): 98.75 ± 66.35 s
Serum CORT (CORT; 10 mg/kg/d gavage): 107.08 ± 8.16 ng/mL
Serum CORT (CORT; 20 mg/kg/d gavage): 111.82 ± 8.27 ng/mL
Serum CORT (CORT; 40 mg/kg/d gavage): 93.63 ± 11.48 ng/mL
Proliferation of neurons in the hippocampus (immunohistofluorescence) [4]: could promote the proliferation of neurons in the mouse hippocampus
Expression of Arg1 protein in hippocampus (Arg1): could significantly reverse the decrease in Arg1 expression
Expression of 5-HT1A protein in hippocampus (5-HT1A): could significantly promote the expression of 5-HT1A protein

CNCCC(Oc1ccc(C(F)(F)F)cc1)c1ccccc1 (stereo not shown) [Flu, fluoxetine hydrochloride, reference compound]
Neuron dendrite length, Maximum (hippocampal neurons; 20 mg/kg/d gavage): 180.19 μm
Neuron dendrite length, Mean (hippocampal neurons; 20 mg/kg/d gavage): 54.65 ± 32.76 μm
Neuron dendrite length, Minimum (hippocampal neurons; 20 mg/kg/d gavage): 6.57 μm
viability at 0.0625 µM (HT22 cells): 103 ± 4.06%
viability at 0.125 µM (HT22 cells): 108 ± 3.95%
viability at 0.25 µM (HT22 cells): 111 ± 1.64%
viability at 0.5 µM (HT22 cells): 112 ± 2.77%
viability at 1 µM (HT22 cells): 123 ± 8.39%
Body weight ([2]; 20 mg/kg/d gavage): 27.03 ± 1.74 g
Diet ([2]; 20 mg/kg/d gavage): 3.90 ± 0.39 g/day
Water intake ([2]; 20 mg/kg/d gavage): 4.00 ± 0.97 g/day
FST immobility time ([3]; 20 mg/kg/d gavage): 178.50 ± 36.52 s
NSFT start time of eating ([3]; 20 mg/kg/d gavage): 84.50 ± 32.69 s
SPT sugar water preference ([3]; 20 mg/kg/d gavage): 13.28 ± 0.56 %
TST immobility time ([3]; 20 mg/kg/d gavage): 71.43 ± 40.80 s
Serum CORT (CORT; 20 mg/kg/d gavage): 152.77 ± 11.25 ng/mL

CN(C)CCCN1c2ccccc2CCc2ccccc21 [Imi, imipramine hydrochloride, reference compound]
Neuron dendrite length, Maximum (hippocampal neurons; 20 mg/kg/d gavage): 172.10 μm
Neuron dendrite length, Mean (hippocampal neurons; 20 mg/kg/d gavage): 37.66 ± 25.07 μm
Neuron dendrite length, Minimum (hippocampal neurons; 20 mg/kg/d gavage): 5.95 μm
Serum 5-HT (5-HT; 20 mg/kg/d gavage): 130.24 ± 13.65 ng/mL
Body weight ([2]; 20 mg/kg/d gavage): 34.41 ± 1.80 g
Diet ([2]; 20 mg/kg/d gavage): 4.38 ± 0.45 g/day
Water intake ([2]; 20 mg/kg/d gavage): 4.92 ± 0.40 g/day
FST immobility time ([3]; 20 mg/kg/d gavage): 163.00 ± 38.09 s
NSFT start time of eating ([3]; 20 mg/kg/d gavage): 65.11 ± 32.90 s
SPT sugar water preference ([3]; 20 mg/kg/d gavage): 8.32 ± 0.12%
TST immobility time ([3]; 20 mg/kg/d gavage): 76.43 ± 46.52 s
Serum CORT (CORT; 20 mg/kg/d gavage): 143.19 ± 12.30 ng/mL
